From PMC6630718, “Discovery of Novel UV-Filters with Favorable Safety Profiles in the 5-Arylideneimidazolidine-2,4-dione Derivatives Group” (Molecules, 2019)

Tests used:
[1] = Photostability in methanol solutions (solar light simulator); format: physicochemical; design: λmax pre-irradiation: unit not given beside the values; conditions: methanol solution; for % of initial AUC post-irradiation / λmax post-irradiation: 1h irradiation at 500 W/m2
Description: (§1) The photostability evaluation of compounds was performed both in methanol solutions and in macrogol formulations. Irradiation of samples according to previous studies was conducted for 1 h at 500 W/m^2 (cumulative dose of ultraviolet radiation 218 kJ/m^2) with solar light simulator (Suntest CPS+, Atlas, Linsengericht, Germany) equipped with an optical filter cutting off wavelengths shorter than 290 nm and IR-block filter to neutralize thermal effects. The UV absorption spectrum of the samples were analysed post-irradiation and compared with pre-irradiation results. UPLC-MS/MS analyses were also performed.
(§2) Methanol solutions were tested at concentration 25 or 50 µM in quartz cuvettes with the PTFE stopper to prevent evaporation or leaking of the solvent. Macrogol formulations (2% w/w) were tested on PMMA plates (1.3 mg/cm^2). After post-irradiation measure of UV absorption, exposed and unexposed plates were washed with 5 mL of methanol, then mixtures were filtered and analysed by UPLC-MS/MS. All analyses were performed in duplicates.

[2] = Photostability in macrogol formulations on PMMA plates (solar light simulator); format: physicochemical
Description: After irradiation of thin layer of formulations applied on PMMA plates, their photoprotective parameters were determined and compared with the pre-irradiation results. The study gives an overview on functional photostability of the tested compounds. It is an important test, because the photostability of some compounds in low concentrated solutions may meaningfully differ from results obtained for higher concentrations used in sunscreen products. […] In the present study both UVB and UVA-absorbers were tested, so the changes in SPFin vitro, UVA PF and AUC after irradiation are taken into account as a measure of photostability.
as §1, §2

[3] = Ultraviolet spectroscopy in methanol solutions; format: physicochemical; conditions: for Absorption Range: scan range 290–400 nm
Description: Spectra with a scan range of 290–400 nm were recorded in 50 or 25 μM methanol solutions, in 1 cm path length, 1.5 mL quartz cuvettes on a U-2800 double beam spectrophotometer (Hitachi, Tokyo, Japan) controlled by UV Solution version 2.2 software. The molar extinction coefficient at maximum absorption (εmax) of tested compounds was determined in methanol as the slope of the linear regression of absorbance vs. concentration of tested compound (from 10 to 50 μM or 2.5 to 30 μM).

[4] = Solubility in cosmetic solvents / macrogol formulations; format: physicochemical; conditions: typical cosmetic solvents / formulations used
Source text: (§3) The composition of formulations and concentration of tested compounds were based on their limited solubility. N-monosubstituted compounds 2a–2e were insoluble at desirable concentrations in the typical solvents used in cosmetic formulations such as alcohols, triacetin, surfactants, and co-surfactants. To dissolve compounds 2a and 2b before incorporation to the formulation DMSO: Tween 20 (1:9 w/w) was used, for less soluble 2c–2e it was necessary to use DMSO alone as solvent. […] Thus the detailed composition of the formulations is as follows: F1–Tween 20 43.2%, PEG-400 25%, PEG-1500 25%, Triacetin 4.8%, tested compound 2%; F2–Tween 20 43.2%, PEG-400 25%, PEG-1500 25%, DMSO 4.8%, tested compound 2%; F3–PEG-400 25%, PEG-1500 25%, DMSO 48%, tested compound 2%. Considering the disadvantages of currently reported macrogol formulations and the low concentration achieved for the tested compounds (2%), we plan to work on cosmetic emulsions containing the most promising derivatives at higher concentrations as well as required excipients including preservatives, antioxidants, etc. This research will be carried out in the near future.

[5] = In vitro photoprotection study of 2% (w/w) macrogol formulations on PMMA plates
Source text: as §3
Tested compounds and commercial UV filters as reference standards were incorporated to a neutral macrogel formulation in the concentration of 2%. Prior to the incorporation, compounds 3a–3e and 4f–4h and reference UV-filters were dissolved in a triacetin:Tween 20 (1:9) solvent system. For compounds 2a–2e it was necessary to use DMSO. The final composition of the macrogol formulations is presented in the photoprotective activity section.
In vitro photoprotection study was performed according to EN ISO 24443:2012 [71] with slight modifications. Formulation with tested compound (32.5 mg) was applied on a polymethylmethacrylate plate (PMMA) with the application area 25 cm^2 and 5 µm roughness value to simulate the skin surface (Schonberg GmbH, Hamburg, Germany). As a reference a PMMA plate treated with approximately 15 µL of glycerin was used. Measurements were carried out by reflectance spectrophotometry with SPF-290AS Analyser (Solar Light Company, Glenside, PA, USA) equipped with integrating sphere controlled by WinSPF version X.X. software. For each sample two plates were prepared, absorbance measures were performed on 6 different positions of the plate from 290 to 400 nm with 1 nm steps. The results were expressed as an average of data from 12 scans.

[6] = In vitro stability in mouse liver microsomes; format: in vitro ADME; conditions: mouse liver microsomes; for half-life at 20 µM / microsomal CLint at 20 µM: mouse; for half-life at 20 µM: pH 7.4, mouse liver microsomes 0.8 mg/mL, 20 µM compound, NADPH-regenerating system, 37 °C, read-out: t ½; for microsomal CLint at 20 µM: pH 7.4, mouse liver microsomes, calculated from t1/2
Description: Mouse liver microsomes (MLMs) were used to investigate the phase I metabolism of selected compounds (2c, 2d, 3b, 4g, 5a) and the reference substance BP-2. Samples composed of test compound (20 µM), MLMs (0.8 mg/mL) and potassium phosphate buffer (100 mM, pH 7.4) were preincubated prior to addition of NADPH-regenerating system. NADPH-regenerating system contained NADP, glucose-6-phosphate, glucose-6-phosphate dehydrogenase and potassium phosphate buffer (100 mM, pH 7.4). Control incubations were performed in the absence of the NADPH-regenerating system and in case of esters (2c, 2d, 3b and 4g) without the mouse liver microsomes solution to determine spontaneous hydrolysis. Incubations were conducted at 37 °C for at least 15 min up to 60 min. The reactions were stopped by the addition of 250 μL ice-cold methanol containing internal standard PTX (20 μM). The mixture was then centrifuged. Supernatant analysis was performed using UPLC/MS (Waters Corporation). The assays were repeated two times. The in vitro half times (t1/2) for test compounds were determined from the slope of the linear regression of ln % parent compound remaining versus incubation time. The calculated t1/2 was incorporated into the following equation to obtain intrinsic clearance: (Clint) = (volume of incubation [µL]/ protein in the incubation [mg]) × 0.693 / t1/2 [74].

[7] = after 1 h irradiation at 500 W/m^2, formulation F2 (DMSO 4.8%)
[8] = after 1 h irradiation at 500 W/m^2, formulation F3 (DMSO 48%)
[9] = 2% (w/w) macrogol formulation F2 (DMSO 4.8%)
[10] = 2% (w/w) macrogol formulation F3 (DMSO 48%)

SMILES | λmax pre-irradiation [1] | % of initial AUC post-irradiation [1] [%] | λmax post-irradiation [1] | melting point [°C] | % of Initial AUC [2, 8] [%] | % of Initial SPFin vitro [2, 8] [%] | % of Initial UVA PF [2, 8] [%] | εmax [3] [M⁻¹ cm⁻¹] | λmax [3] [nm] | Absorption Range [3] | Probable Transformation [6] | half-life at 20 µM [6] [min] | microsomal CLint at 20 µM [6] [µL/min/mg] | SPFin vitro [5, 10] | UVA PF [5, 10] | UVA/UVB Ratio [5, 10] | λc (critical wavelength) [5, 10] [nm] | other results
CCOC(=O)CN1C(=O)N/C(=C\c2ccccc2)C1=O [Compound 2a, Ethyl (Z)-2-(4-benzylidene-2,5-dioxoimidazolidin-1-yl)acetate] | 316 | 70.45 | 317 | 169 to 171 | 46.72 | 33.25 | 37.87 | 28460 | 316 | 290–345 nm |  |  |  |  |  |  |  | decrease of AUC after irradiation [1]: ~30%; shift of λmax after irradiation [1]: 1 nm; improvement of the functional photostability ([2]; DMSO in formulation reduced from 48 to 4.8%): 31.1%; % of Initial AUC [2, 7]: 62.42%; % of Initial SPFin vitro [2, 7]: 55.49%; % of Initial UVA PF [2, 7]: 68.96%; percentage of photoisomer formation ([2]; two formulations differing in the content of DMSO (48 and 4.8%), which value belongs to which is not given): 48%; solubility (in words) [4]: only slightly soluble; SPFin vitro [5, 9]: 4.79 ± 0.02; UVA PF [5, 9]: 2.40 ± 0.01; UVA/UVB Ratio [5, 9]: 0.35 ± 0.00; λc (critical wavelength) [5, 9]: 339 nm
CCOC(=O)CN1C(=O)N/C(=C\c2ccc(OC)cc2OC)C1=O [Compound 2d, Ethyl (Z)-2-(4-(2,4-dimethoxybenzylidene)-2,5-dioxoimidazolidin-1-yl)acetate] | 349 | 100.96 | 354 | 197 to 198 | 58.87 | 75.69 | 51.45 | 30700 | 349 | 290–394 nm | O-dealkylation | 15 | 59 | 2.00 ± 0.11 | 4.48 ± 0.38 | 2.59 ± 0.09 | 386 | decrease of tested parameters (SPFin vitro, UVA PF, AUC) after irradiation ([2]; formulation with DMSO 48% (F3), extreme values): 41.1%
CCOC(=O)CN1C(=O)N/C(=C\c2ccc(OCC)cc2)C1=O [Compound 2c, Ethyl (Z)-2-(4-(4-ethoxybenzylidene)-2,5-dioxoimidazolidin-1-yl)acetate] | 336 | 96.89 | 344 | 181 to 182 | 34.13 | 44.37 | 35.83 | 35610 | 336 | 290–376 nm | O-dealkylation | 33 | 52 | 3.16 ± 0.05 | 4.68 ± 0.02 | 1.36 ± 0.01 | 367 | 
CCOC(=O)CN1C(=O)N/C(=C\c2ccc(OC)c(OC)c2)C1=O [Compound 2e, Ethyl (Z)-2-(4-(3,4-dimethoxybenzylidene)-2,5-dioxoimidazolidin-1-yl)acetate] | 344 | 97.8 | 351 | 198 to 200 | 41.99 | 56.00 | 38.99 | 30740 | 344 | 290–381 nm | O-dealkylation | 41 | 21 | 2.50 ± 0.08 | 4.77 ± 0.24 | 1.95 ± 0.02 | 379 | 
